# Laboratory results reported in ChEMBL document CHEMBL3882724 (2013).
# Experiments:
# [1] = Half life in human liver microsomes at 1 uM by LC-MS/MS analysis
# [2] = target: T1, CYP21 (steroid 21-hydroxylase) (Homo sapiens, UniProt P08686); assay: Inhibition of human CYP21 transfected in HEK293 cells assessed as decrease in conversion of progesterone to 11-deoxycorticosterone preincubated for 5 hrs followed by progesterone addition measured after 20 hrs by ELISA; assay type: cell-based; design: concentration or dose not given beside the values; settings: HEK293 cells transfected with human CYP21, probe progesterone
# T1 sequence (P08686 whole entry): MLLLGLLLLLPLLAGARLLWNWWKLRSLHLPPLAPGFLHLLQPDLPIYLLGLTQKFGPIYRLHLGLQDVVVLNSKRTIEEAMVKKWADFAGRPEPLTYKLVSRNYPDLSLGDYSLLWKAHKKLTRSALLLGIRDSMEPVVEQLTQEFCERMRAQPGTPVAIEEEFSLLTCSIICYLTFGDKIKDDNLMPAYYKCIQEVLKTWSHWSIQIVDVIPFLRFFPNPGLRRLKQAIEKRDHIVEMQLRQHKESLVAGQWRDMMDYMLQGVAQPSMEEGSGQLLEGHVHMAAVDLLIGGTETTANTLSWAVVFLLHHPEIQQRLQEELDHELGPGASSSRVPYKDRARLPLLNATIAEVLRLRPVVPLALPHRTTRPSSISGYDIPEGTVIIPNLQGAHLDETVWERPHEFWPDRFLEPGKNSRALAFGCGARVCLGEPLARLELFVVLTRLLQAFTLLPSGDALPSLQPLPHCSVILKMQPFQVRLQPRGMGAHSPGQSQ
# [3] = target: T2, Steroid 17-alpha-hydroxylase/17,20 lyase (Homo sapiens, UniProt P05093); assay: Inhibition of CYP17 in human testicular microsomes using 17alpha-hydroxypregnenolone as substrate assessed as decrease in DHEA levels at 1 nM after 90 mins by ELISA relative to control; design: species or system Testis
# T2 sequence (P05093 whole entry): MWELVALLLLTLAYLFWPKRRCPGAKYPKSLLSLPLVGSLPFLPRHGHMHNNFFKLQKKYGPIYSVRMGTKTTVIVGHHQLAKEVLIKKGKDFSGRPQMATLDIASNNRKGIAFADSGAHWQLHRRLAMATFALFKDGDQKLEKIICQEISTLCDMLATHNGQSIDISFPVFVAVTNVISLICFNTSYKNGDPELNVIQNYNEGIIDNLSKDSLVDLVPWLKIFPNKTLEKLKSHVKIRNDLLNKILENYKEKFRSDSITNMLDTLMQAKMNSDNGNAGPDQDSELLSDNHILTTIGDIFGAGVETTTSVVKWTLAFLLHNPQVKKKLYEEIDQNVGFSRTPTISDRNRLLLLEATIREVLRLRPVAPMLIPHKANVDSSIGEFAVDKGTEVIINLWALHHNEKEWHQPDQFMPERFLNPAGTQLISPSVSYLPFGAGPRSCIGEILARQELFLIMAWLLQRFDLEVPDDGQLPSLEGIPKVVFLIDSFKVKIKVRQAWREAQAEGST
# [4] = target: T2, Steroid 17-alpha-hydroxylase/17,20 lyase; assay: Inhibition of CYP17 in human testicular microsomes using 17alpha-hydroxypregnenolone as substrate assessed as decrease in DHEA levels after 90 mins by ELISA; design: species or system Testis
# [5] = target: T2, Steroid 17-alpha-hydroxylase/17,20 lyase; assay: Inhibition of CYP17 in human H295R cells assessed as decrease in testosterone levels after 24 hrs by ELISA; assay type: cell-based
# [6] = target: T2, Steroid 17-alpha-hydroxylase/17,20 lyase; assay: Inhibition of CYP17 in human testicular microsomes using 17alpha-hydroxypregnenolone as substrate assessed as decrease in DHEA levels at 10 nM after 90 mins by ELISA relative to control; design: species or system Testis; settings: 1.5 h
# [7] = Half life in rat liver microsomes at 1 uM by LC-MS/MS analysis
Structure (SMILES),half-life at 1 µM [1] [min],inhibition at 20 h [2] [%],IC50 [3] [nM],IC50 [4] [nM],IC50 [5] [nM],inhibition at 0.01 µM [6] [%],half-life at 1 µM [7] [min]
C[C@]12CC[C@H]3[C@@H](C=CC4=CC(=O)CC[C@@]43C)C1=CC=C2c1cccnc1,1 to 50,≥ 50,10 to 100,≤ 11,,,
C[C@]12CC[C@H]3[C@@H](CC4(CC4)C4=CC(=O)CC[C@@]43C)C1=CC=C2c1cccnc1,,,≤ 10,,,,
C[C@]12CC[C@H]3[C@@H](CCC4=CC(=O)NCC[C@@]43C)C1=CC=C2c1cncc(F)c1,1 to 50,10 to 50,> 100,,≤ 15,,
CN1CC[C@@]2(C)C(=CC1=O)CC[C@H]1C3=CC=C(c4cncc(F)c4)[C@@]3(C)CC[C@@H]12,,,> 100,,,,
C[C@]12CCC(=O)C=C1C=C[C@@H]1[C@@H]2CC[C@]2(C)C(c3cccnc3)=CC[C@@H]12,1 to 50,≥ 50,> 100,,,,
CC1=C2CC[C@H]3C4=CC=C(c5cccnc5)[C@@]4(C)CC[C@@H]3[C@@]2(C)CCC1=O,,≥ 50,> 100,,,,
CC(=O)O[C@H]1CC[C@@]2(C)[C@@H](CC[C@@H]3[C@@H]2CC[C@]2(C)C(n4ccnn4)=CC[C@@H]32)C1,,,,≤ 11,≤ 15,≥ 80,
CC1C[C@H]2C3=CC=C(c4cncc(F)c4)[C@@]3(C)CC[C@@H]2[C@@]2(C)CCC(=O)C=C12 (some centres not stated),1 to 50,10 to 50,≤ 10,,≤ 15,,
C[C@]12CC/C(=N\O)C=C1C1(CC1)C[C@@H]1[C@@H]2CC[C@]2(C)C(c3cccnc3)=CC[C@@H]12,,10 to 50,> 100,,,,
CN1CC[C@@]2(C)C(=CC1=O)C1CC1[C@H]1C3=CC=C(c4cccnc4)[C@@]3(C)CC[C@@H]12 (some centres not stated),,,10 to 100,,,,
C=C1C[C@H]2C3=CC=C(c4cccnc4)[C@@]3(C)CC[C@@H]2[C@@]2(C)C=CC(=O)C=C12,1 to 50,,≤ 10,,,,
CC1C[C@H]2C3=CC=C(c4cncc(F)c4)[C@@]3(C)CC[C@@H]2[C@@]2(C)CCNC(=O)C=C12 (some centres not stated),1 to 50,10 to 50,10 to 100,,,,
C[C@]12CCC(=O)C=C1C1CC1[C@@H]1[C@@H]2CC[C@]2(C)C(c3cccnc3)=CC[C@@H]12 (some centres not stated),1 to 50,≥ 50,> 100,,,,
C[C@]12CC[C@H]3[C@@H](C=CC4=C(O)C(=O)CC[C@@]43C)C1=CC=C2c1cccnc1,1 to 50,≥ 50,> 100,,,,
C[C@]12CC[C@H]3[C@@H](CC=C4C[C@@H](O)CC[C@@]43C)C1=CC=C2c1cncc(F)c1,1 to 50,≥ 50,,≤ 11,≤ 15,,
CC1C[C@@H]2[C@H](CC[C@]3(C)C(c4cccnc4)CC[C@@H]23)[C@@]2(C)CCNC(=O)C=C12 (some centres not stated),1 to 50,,≤ 10,,,,
CC1C[C@@H]2[C@H](CC[C@]3(C)C(c4cccnc4)CC[C@@H]23)[C@@]2(C)CCC(=O)C=C12 (some centres not stated),1 to 50,,≤ 10,,,,
CC1C[C@@H]2[C@H](CC[C@]3(C)C(c4cncc(F)c4)=CC[C@@H]23)[C@@]2(C)C=CC(=O)C=C12 (some centres not stated),,≥ 50,10 to 100,≤ 11,,,
C[C@]12CC[C@H]3[C@@H](CC(C4CC4)C4=CC(=O)CC[C@@]43C)C1=CC=C2c1cccnc1 (some centres not stated),,10 to 50,> 100,,,,
C[C@]12CC[C@H]3[C@@H](CC[C@H]4C[C@@H](O)CC[C@@]43C)C1=CC=C2n1ccnc1,≥ 50,,,≤ 11,≤ 15,≥ 80,10 to 60
CCC1C[C@@H]2[C@H](CC[C@]3(C)C(c4cccnc4)=CC[C@@H]23)[C@@]2(C)CCC(=O)C=C12 (some centres not stated),,10 to 50,10 to 100,,,,

Structure (SMILES),half-life at 1 µM [1] [min],inhibition at 20 h [2] [%],IC50 [3] [nM],IC50 [4] [nM],IC50 [5] [nM],inhibition at 0.01 µM [6] [%],half-life at 1 µM [7] [min]
C=C1C[C@H]2C3=CC=C(c4cccnc4)[C@@]3(C)CC[C@@H]2[C@@]2(C)CCC(=O)C=C12,,,10 to 100,,,,
C[C@]12CCNC(=O)C=C1C1CC1[C@@H]1[C@@H]2CC[C@]2(C)C(c3cccnc3)=CC[C@@H]12 (some centres not stated),1 to 50,≥ 50,> 100,≤ 11,,,
C[C@]12C=C/C(=N\O)C=C1C1(CC1)C[C@@H]1[C@@H]2CC[C@]2(C)C(c3cccnc3)=CC[C@@H]12,,10 to 50,> 100,,,,
C[C@]12CCCC(=O)C1CC[C@@H]1[C@@H]2CC[C@]2(C)C(c3cccnc3)=CC[C@@H]12 (some centres not stated),,,,≤ 11,≤ 15,≥ 80,
CC1C[C@H]2C3=CC=C(c4cccnc4)[C@@]3(C)CC[C@@H]2[C@@]2(C)CCN(C)C(=O)C=C12 (some centres not stated),,,10 to 100,,,,
CC1C[C@H]2C3=CC=C(c4cccnc4)[C@@]3(C)CC[C@@H]2[C@@]2(C)C=CC(=O)C=C12 (some centres not stated),1 to 50,≥ 50,≤ 10,,,≥ 80,
C[C@]12CC[C@H]3[C@@H](CCC4=CC(=O)CC[C@@]43C)C1=CC=C2c1cncnc1,1 to 50,≥ 50,10 to 100,≤ 11,,,
C[C@]12CCNC(=O)C[C@@H]1CC[C@@H]1[C@@H]2CC[C@]2(C)C(n3ccnn3)=CC[C@@H]12,≥ 50,,,≤ 11,≤ 15,≥ 80,10 to 60
CCC1C[C@H]2C3=CC=C(c4cccnc4)[C@@]3(C)CC[C@@H]2[C@@]2(C)CCC(=O)C=C12 (some centres not stated),1 to 50,10 to 50,10 to 100,≤ 11,,,
CC1C[C@@H]2[C@H](CC[C@]3(C)C(c4cccnc4)=CC[C@@H]23)[C@@]2(C)C=CC(=O)C=C12 (some centres not stated),1 to 50,≥ 50,≤ 10,,≤ 15,,
CC1C[C@@H]2[C@H](CC[C@]3(C)C(c4cncc(F)c4)=CC[C@@H]23)[C@@]2(C)CCC(=O)C=C12 (some centres not stated),,≥ 50,> 100,≤ 11,≤ 15,,
CC1C[C@@H]2[C@H](CC[C@]3(C)C(c4cccnc4)=CC[C@@H]23)[C@@]2(C)CC/C(=N\O)C=C12 (some centres not stated),1 to 50,10 to 50,> 100,,,,
CC1C[C@H]2C3=CC=C(c4cccnc4)[C@@]3(C)CC[C@@H]2[C@@]2(C)CCC(=O)C=C12 (some centres not stated),1 to 50,≥ 50,≤ 10,≤ 11,,,
C[C@]12CC[C@H]3[C@@H](CC(CO)C4=CC(=O)CC[C@@]43C)C1=CC=C2c1cccnc1 (some centres not stated),,≥ 50,> 100,≤ 11,,,
C[C@]12CC[C@H]3[C@@H](CC4(CC4)C4=CC(=O)CC[C@@]43C)C1=CC=C2c1cncc(F)c1,,,10 to 100,,,,
COc1cncc(C2=CC=C3[C@@H]4CC=C5C[C@@H](O)CC[C@]5(C)[C@H]4CC[C@]23C)c1,≥ 50,,,≤ 11,≤ 15,≥ 80,≥ 50
C=C1C[C@H]2C3=CC=C(c4cncc(F)c4)[C@@]3(C)CC[C@@H]2[C@@]2(C)CCC(=O)C=C12,,,10 to 100,,,,
CC1C[C@@H]2[C@H](CC[C@]3(C)C(c4cccnc4)CC[C@@H]23)[C@@]2(C)C=CC(=O)C=C12 (some centres not stated),1 to 50,,≤ 10,≤ 111,,,
"CC1CC2C3=CC=C(c4cncc(F)c4)[C@@]3(C)CC[C@@H]2[C@@]2(C)CCN(C)C(=O)C=C12 (single isomer, unassigned)",,,> 100,,,,
"C[C@]12CCC(=O)C=C1C(F)CC1[C@@H]2CC[C@]2(C)C(c3cccnc3)=CC[C@@H]12 (single isomer, unassigned)",1 to 50,≥ 50,,≤ 11,≤ 15,,
